Consider 24 molecules from patent US20240238424A1, “HETEROBIFUNCTIONAL COMPOUNDS AND METHODS OF TREATING DISEASE” (Halda Therapeutics OpCo, Inc., priority 2021, published 2024).

Molecules are shown by their SMILES.

T1 sequence (P15170 whole entry): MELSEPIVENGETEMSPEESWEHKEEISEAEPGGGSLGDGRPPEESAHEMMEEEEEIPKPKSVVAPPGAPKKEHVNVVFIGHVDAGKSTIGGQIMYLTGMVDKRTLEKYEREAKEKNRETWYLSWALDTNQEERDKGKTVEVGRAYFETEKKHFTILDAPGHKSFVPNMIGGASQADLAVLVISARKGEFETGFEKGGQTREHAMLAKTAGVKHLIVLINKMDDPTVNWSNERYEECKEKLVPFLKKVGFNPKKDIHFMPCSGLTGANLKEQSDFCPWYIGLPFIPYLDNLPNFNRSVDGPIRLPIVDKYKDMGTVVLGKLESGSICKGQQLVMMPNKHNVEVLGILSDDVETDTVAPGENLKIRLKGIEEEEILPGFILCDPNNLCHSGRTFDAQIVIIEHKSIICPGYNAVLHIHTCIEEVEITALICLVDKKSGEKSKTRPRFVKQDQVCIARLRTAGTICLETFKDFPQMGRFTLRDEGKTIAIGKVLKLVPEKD
T1 sequence (Q96SW2 whole entry): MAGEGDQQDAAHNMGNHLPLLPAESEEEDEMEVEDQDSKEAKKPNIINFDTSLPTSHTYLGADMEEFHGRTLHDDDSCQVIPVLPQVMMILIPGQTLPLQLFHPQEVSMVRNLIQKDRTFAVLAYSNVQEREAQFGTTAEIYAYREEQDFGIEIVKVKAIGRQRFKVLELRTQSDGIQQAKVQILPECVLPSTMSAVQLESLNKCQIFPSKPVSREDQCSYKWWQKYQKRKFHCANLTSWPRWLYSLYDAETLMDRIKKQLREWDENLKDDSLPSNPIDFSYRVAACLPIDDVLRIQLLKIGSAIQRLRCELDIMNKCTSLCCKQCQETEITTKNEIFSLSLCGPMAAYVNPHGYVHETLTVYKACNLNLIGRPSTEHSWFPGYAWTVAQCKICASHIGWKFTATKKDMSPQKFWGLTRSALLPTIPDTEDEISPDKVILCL
T1 sequence (Q16531 whole entry partner): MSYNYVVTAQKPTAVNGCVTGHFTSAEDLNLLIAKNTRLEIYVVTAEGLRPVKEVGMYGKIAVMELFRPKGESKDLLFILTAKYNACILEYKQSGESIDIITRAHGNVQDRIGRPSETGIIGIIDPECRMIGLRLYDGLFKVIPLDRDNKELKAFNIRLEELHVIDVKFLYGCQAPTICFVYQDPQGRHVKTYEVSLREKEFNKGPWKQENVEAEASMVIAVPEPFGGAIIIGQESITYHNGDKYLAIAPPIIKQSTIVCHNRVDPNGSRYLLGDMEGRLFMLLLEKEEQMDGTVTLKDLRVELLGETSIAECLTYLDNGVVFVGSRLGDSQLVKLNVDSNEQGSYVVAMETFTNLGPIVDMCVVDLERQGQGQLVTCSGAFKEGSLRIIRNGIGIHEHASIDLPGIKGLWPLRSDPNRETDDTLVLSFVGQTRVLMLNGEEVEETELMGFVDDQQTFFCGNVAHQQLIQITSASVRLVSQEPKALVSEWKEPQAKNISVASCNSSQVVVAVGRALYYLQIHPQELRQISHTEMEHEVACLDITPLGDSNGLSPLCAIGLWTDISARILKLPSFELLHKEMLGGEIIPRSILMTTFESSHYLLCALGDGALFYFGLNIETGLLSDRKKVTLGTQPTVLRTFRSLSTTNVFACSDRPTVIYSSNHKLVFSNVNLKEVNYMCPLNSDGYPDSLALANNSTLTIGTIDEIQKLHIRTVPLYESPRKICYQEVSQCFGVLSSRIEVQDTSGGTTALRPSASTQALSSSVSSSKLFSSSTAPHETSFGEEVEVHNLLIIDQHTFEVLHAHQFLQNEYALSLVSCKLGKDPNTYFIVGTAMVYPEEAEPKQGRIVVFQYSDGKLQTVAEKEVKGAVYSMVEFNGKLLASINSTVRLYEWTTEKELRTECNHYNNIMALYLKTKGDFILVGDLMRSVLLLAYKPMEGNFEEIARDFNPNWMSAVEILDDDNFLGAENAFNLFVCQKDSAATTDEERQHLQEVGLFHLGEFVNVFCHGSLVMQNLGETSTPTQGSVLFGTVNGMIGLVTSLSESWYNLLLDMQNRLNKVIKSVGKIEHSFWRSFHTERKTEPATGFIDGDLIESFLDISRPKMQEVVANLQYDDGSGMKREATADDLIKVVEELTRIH

The first experiment addresses T1, GSPT1 (Homo sapiens, UniProt P15170+Q96SW2).
T1 construct: host or cells: HEK293 LgBiT cell line
Briefly: GSPT1 HiBit degradation assay. Format: cell-based. The note with it: Table 3; HEK293 LgBiT cells expressing GSPT1_HiBiT, luminescence after 6 hours. From the text: Promega developed a HEK293 cell line that constitutively expresses LgBiT protein and GSPT1_HiBiT fusion protein. When both proteins are present, the HiBiT portion of the fusion protein combines with LgBiT protein to form a functional luciferase enzyme. Endurazine, a cell permeable small molecule, is converted by cellular esterases into furimazine, which the luciferase enzyme uses as a substrate to generate luminescence. When GSPT1 is degraded, the HiBit is also degraded. This prevents formation of fully functional luciferase, leading to a loss in luminescence. GSPT1 degradation therefore correlates with a decrease in luminescence and can be measured continuously over time. The concentration of compound at which 50% GSPT1 degradation occurs (DC50) was calculated using this system.
• HEK293 LgBiT Cell line (Promega Custom) • Endurazine Substrate (Promega Cat. #N2570) • DMEM (Gibco Cat. #11995) • Penicillin/Streptomycin (Gibco Cat. #15140-122) • Heat Inactivated Fetal Bovine Serum (Gibco Cat. #A38400-01) • Hygromycin B (Gibco Cat. #10-687-010) • 384 Well TC Treated White Microplate (Perkin Elmer Cat. #6007680)
HEK293 LgBiT cells were cultured in DMEM Media supplemented with 10% FBS, 5% Pen/Strep, 200 μg/ml hygromycin and stored in an incubator set at 37° C. and 5% CO2. 18-24 hours prior to compound treatment, HEK293 LgBiT cells were seeded at 1000 cells/well in a 384-well microplate in 25 μl complete media. The plate was spun at 300 g for 30 seconds and stored in the incubator overnight. The next day, compounds were titrated in DMSO and added to media supplemented with endurazine substrate. A 25 ul aliquot of 2× compound/endurazine in media were then added to the 384-well microplate with seeded cells. (Endurazine was used at a final concentration of 0.5×). The plate was spun at 300 g for 30 seconds and stored in the incubator. After 6 hours the plate was read on a Perkin Elmer MultiMode Plate Reader Envision 2105 to measure luminescence signal.
(In general: HiBiT is a short tag that completes a luciferase, so light tracks the accessible tagged protein.)
On to `COc1cc(N2CCN(C(=O)COCCOCCOCCOCCOCCOCCOCCOCCOCCOCCc3cc(Cl)cc(NC(=O)NCc4ccc5c(c4)CN(C4CCC(=O)NC4=O)C5=O)c3)CC2)ccc1Nc1ncc(Cl)c(Nc2ccccc2P(C)(C)=O)n1` (stereo not drawn) [Compound I-45], for which the DC50 (as a rule, the concentration giving 50% degradation) was in the range of 5000 to 10000 nM. On the same count and under the same terms, in the case of `CCN(CCOCCOCCOCCOCCOCCOCCCCCCCCc1cc(Cl)cc(NC(=O)NCc2ccc3c(c2)CN(C2CCC(=O)NC2=O)C3=O)c1)CCOc1ccc(C(=O)c2c(-c3ccc(O)cc3)sc3cc(O)ccc23)cc1` (stereo not drawn) [Compound I-55] it was under 250 nM; in that of `Cc1c(CC(=O)N(C)C)ccc(NC(=O)c2nn([C@H]3CCCN(C(=O)/C=C/CN(C)CCOCCOCCOCCOCCCCCCCCc4cc(Cl)cc(NC(=O)NCc5ccc6c(c5)CN(C5CCC(=O)NC5=O)C6=O)c4)C3)c3ncnc(N)c23)c1C` (stereo partly drawn) [Compound I-64], under 250 nM; in that of `COc1cc(N2CCN(C(=O)COCCOCCOCCOCCOCCOCCOCCOCCc3cc(Cl)cc(NC(=O)NCc4ccc5c(c4)CN(C4CCC(=O)NC4=O)C5=O)c3)CC2)ccc1Nc1ncc(Cl)c(Nc2ccccc2P(C)(C)=O)n1` (stereo not drawn) [Compound I-27], 5000 to 10000 nM. The same measure, in the same setting: with `C=CC(=O)Nc1cc(Nc2nccc(-c3cn(C)c4ccccc34)n2)c(OC)cc1N(C)CCN(C)CCOCCOCCOCCOCCOCCOCCCCCCCCc1cc(Cl)cc(NC(=O)NCc2ccc3c(c2)CN(C2CCC(=O)NC2=O)C3=O)c1` (stereo not drawn) [Compound I-62] the figure was under 250 nM.

With `C=CC(=O)Nc1cc(Nc2nccc(-c3cn(C)c4ccccc34)n2)c(OC)cc1N(C)CCN(C)CCOCCOCCOCCOCCOCCOCCOCCOCCOCCOCCCCCCCCc1cc(Cl)cc(NC(=O)NCc2ccc3c(c2)CN(C2CCC(=O)NC2=O)C3=O)c1` (stereo not drawn) [Compound I-63], the DC50 is under 250 nM. Same read-out and setting: with `C=CC(=O)Nc1cc(Nc2nccc(-c3cn(C)c4ccccc34)n2)c(OC)cc1N(C)CCN(C)CCOCCOCCOCCOCCOCCOCCOCCOCCOCCOCCc1cc(Cl)cc(NC(=O)NCc2ccc3c(c2)CN(C2CCC(=O)NC2=O)C3=O)c1` (stereo not drawn) [Compound I-36] the figure was 5000 to 10000 nM; with `Cc1c(CC(=O)N(C)C)ccc(NC(=O)c2nn(C3CCCN(C(=O)/C=C/CN(C)CCOCCOCCOCCOCCOCCOCCCCCCCCc4cc(Cl)cc(NC(=O)NCc5ccc6c(c5)CN(C5CCC(=O)NC5=O)C6=O)c4)C3)c3ncnc(N)c23)c1C` (stereo not drawn) [Compound I-65], under 250 nM; with `Cc1c(CC(=O)N(C)C)ccc(NC(=O)c2nn([C@@H]3CCCN(C(=O)/C=C/CN(C)CCOCCOCCOCCOCCOCCOCCOCCOCCCCCCCCc4cc(Cl)cc(NC(=O)NCc5ccc6c(c5)CN(C5CCC(=O)NC5=O)C6=O)c4)C3)c3ncnc(N)c23)c1C` (stereo partly drawn) [Compound I-69], under 250 nM.

`CCN(CCOCCOCCOCCOCCCCCCCCCCCCCCc1cc(Cl)cc(NC(=O)NCc2ccc3c(c2)CN(C2CCC(=O)NC2=O)C3=O)c1)CCOc1ccc(C(=O)c2c(-c3ccc(O)cc3)sc3cc(O)ccc23)cc1` (stereo not drawn) [Compound I-59] had a DC50 of 250 to 5000 nM.

Still in this experiment, the particulars now being: Table 3A; HEK293 LgBiT cells expressing GSPT1_HiBiT, luminescence after 6 hours.
Consider `CN(C/C=C/C(=O)N1CCN(c2nc(OC[C@@H]3CCCN3C)nc3c2CCN(c2cccc4cccc(Cl)c24)C3)C[C@@H]1CC#N)CCOCCOCCOCCOCCCCCCCCc1cc(Cl)cc(NC(=O)NCc2ccc3c(c2)CN(C2CCC(=O)NC2=O)C3=O)c1` (stereo partly drawn) [Compound I-81], for which the DC50 was under 250 nM. Still for that read-out and setting: in the case of `Cc1c(NC(=O)c2ccc(C3CC3)cc2F)cc(F)cc1-c1ncnc(N)c1OCCN(C)C(=O)/C=C/CN(C)CCOCCOCCOCCOCCOCCOCCOCCOCCOCCOCCOCCCCCc1cc(Cl)cc(NC(=O)NCc2ccc3c(c2)CN(C2CCC(=O)NC2=O)C3=O)c1` (stereo not drawn) [Compound I-143] it was 250 to 5000 nM; in that of `C=C(F)C(=O)N1CCN(c2nc(OC[C@@H]3CCCN3CCCOCCOCCOCCOCCOCCOCCOCCOCCOCCOCCCCCCCCc3cc(Cl)cc(NC(=O)NCc4ccc5c(c4)CN(C4CCC(=O)NC4=O)C5=O)c3)nc3c2CCN(c2cccc4cccc(Cl)c24)C3)C[C@@H]1CC#N` (stereo partly drawn) [Compound I-80], 250 to 5000 nM.

`Cc1c(NC(=O)c2ccc(C3CC3)cc2F)cc(F)cc1-c1ncnc(N)c1OCCN(C)C(=O)/C=C/CN(C)CCOCCOCCOCCOCCOCCOCCCCCCCCc1cc(Cl)cc(NC(=O)NCc2ccc3c(c2)CN(C2CCC(=O)NC2=O)C3=O)c1` (stereo not drawn) [Compound I-97]: the DC50 is under 250 nM.

In turn, `Nc1ncnc2c1c(-c1ccc(Oc3ccccc3)cc1)nn2[C@@H]1CCCN(C(=O)/C=C/COCCOCCOCCOCCOCCOCCOCCCCCCCCc2cc(Cl)cc(NC(=O)NCc3ccc4c(c3)CN(C3CCC(=O)NC3=O)C4=O)c2)C1` (stereo partly drawn) [Compound I-85] returned a 50% degradation concentration (DC50) of under 250 nM. On the same count and under the same terms, in the case of `CN(C/C=C/C(=O)N1CCC[C@@H](n2nc(-c3ccc(Oc4ccccc4)cc3)c3c(N)ncnc32)C1)CCOCCOCCOCCOCCOCCOCCOCCOCCOCCCCCc1cc(Cl)cc(NC(=O)NCc2ccc3c(c2)CN(C2CCC(=O)NC2=O)C3=O)c1` (stereo partly drawn) [Compound I-117] it was 5000 to 10000 nM; in that of `CN(C/C=C/C(=O)N1CCN(c2nc(OC[C@@H]3CCCN3C)nc3c2CCN(c2cccc4cccc(Cl)c24)C3)C[C@@H]1CC#N)CCOCCOCCOCCOCCOCCOCCOCCOCCOCCOCCCCCCCCc1cc(Cl)cc(NC(=O)NCc2ccc3c(c2)CN(C2CCC(=O)NC2=O)C3=O)c1` (stereo partly drawn) [Compound I-87], 250 to 5000 nM.

With `CN(C/C=C/C(=O)N1CCN(c2nc(OC[C@@H]3CCCN3C)nc3c2CCN(c2cccc4cccc(Cl)c24)C3)C[C@@H]1CC#N)CCOCCOCCOCCOCCOCCOCCOCCOCCOCCOCCOCCOCCCCCCCCc1cc(Cl)cc(NC(=O)NCc2ccc3c(c2)CN(C2CCC(=O)NC2=O)C3=O)c1` (stereo partly drawn) [Compound I-88], the DC50 is 250 to 5000 nM. On the same count and under the same terms, with `CN(C/C=C/C(=O)N1CCC[C@@H](n2nc(-c3ccc(Oc4ccccc4)cc3)c3c(N)ncnc32)C1)CCOCCOCCOCCOCCOCCOCCOCCCCCc1cc(Cl)cc(NC(=O)NCc2ccc3c(c2)CN(C2CCC(=O)NC2=O)C3=O)c1` (stereo partly drawn) [Compound I-111] the figure was 250 to 5000 nM; with `CN(C/C=C/C(=O)N1CCN(c2nc(OC[C@@H]3CCCN3C)nc3c2CCN(c2cccc4cccc(Cl)c24)C3)C[C@@H]1CC#N)CCOCCOCCOCCOCCOCCOCCOCCOCCOCCCCCc1cc(Cl)cc(NC(=O)NCc2ccc3c(c2)CN(C2CCC(=O)NC2=O)C3=O)c1` (stereo partly drawn) [Compound I-162], 250 to 5000 nM; with `C=CC(=O)N1CCN(c2nc(=O)n(-c3c(C)cc(OCCOCCOCCOCCOCCOCCOCCOCCCCCc4cc(Cl)cc(NC(=O)NCc5ccc6c(c5)CN(C5CCC(=O)NC5=O)C6=O)c4)nc3C(C)C)c3nc(-c4c(O)cccc4F)c(F)cc23)[C@@H](C)C1` (stereo partly drawn) [Compound I-153], 250 to 5000 nM. On the same count and under the same terms, in the case of `COc1cc(N2CCN(C(=O)COCCOCCOCCOCCOCCOCCOc3cc(Cl)cc(NC(=O)NCc4ccc5c(c4)CN(C4CCC(=O)NC4=O)C5=O)c3)CC2)ccc1Nc1ncc(Cl)c(Nc2ccccc2P(C)(C)=O)n1` (stereo not drawn) [Compound I-25] it was over 10000 nM. Regarding `C=C(F)C(=O)N1CCN(c2nc(OC[C@@H]3CCCN3CCCOCCOCCOCCOCCOCCCCCc3cc(Cl)cc(NC(=O)NCc4ccc5c(c4)CN(C4CCC(=O)NC4=O)C5=O)c3)nc3c2CCN(c2cccc4cccc(Cl)c24)C3)C[C@@H]1CC#N` (stereo partly drawn) [Compound I-133], the DC50 lay in the range of 250 to 5000 nM. Turning to `CN(C/C=C/C(=O)N1CCC[C@@H](n2nc(-c3ccc(Oc4ccccc4)cc3)c3c(N)ncnc32)C1)CCOCCOCCOCCCCCc1cc(Cl)cc(NC(=O)NCc2ccc3c(c2)CN(C2CCC(=O)NC2=O)C3=O)c1` (stereo partly drawn) [Compound I-110], the 50% degradation concentration (DC50) fell in the range of 250 to 5000 nM.
